From PubChem BioAssay AID248 (DTP/NCI, 2004)
Several values for one entry are separate records, joined by “and”; a condition that tells them apart may be missing. Identical values can stand only once. Toxic doses and inconclusive results are not listed. No stated cut-off is given here; in the data, active means T/C of 150% or more; inactive means T/C below 125%.

Test system: L1210 leukemia ip in BDF1 mice, survival T/C
Experiment: NCI In Vivo Anticancer Drug Screen. Data for tumor model L1210 Leukemia (intraperitoneal) in B6D2F1 (BDF1) mice
Conditions: endpoint: mean survival time, higher = longer survival
Method in brief: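 In this screen, tumor-bearing mice given compound are compared to those given vehicle, and their survival values are reported as a treated-to-control quotient.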

[1] = dose: 15.0 mg/kg/injection, schedule: Q01DX001 (ip), vehicle: carboxymethylcellulose (CMC)
[2] = dose: 30.0 mg/kg/injection, schedule: Q01DX001 (ip), vehicle: carboxymethylcellulose (CMC)
[3] = dose: 60.0 mg/kg/injection, schedule: Q01DX001 (ip), vehicle: carboxymethylcellulose (CMC)
[4] = dose: 100.0 mg/kg/injection, schedule: Q01DX009 (ip), vehicle: Klucel (hydroxypropylcellulose) (HPC)
[5] = dose: 100.0 mg/kg/injection, schedule: Q04DX003 (ip), vehicle: Klucel (hydroxypropylcellulose) (HPC)
[6] = dose: 200.0 mg/kg/injection, schedule: Q01DX009 (ip), vehicle: Klucel (hydroxypropylcellulose) (HPC)
[7] = dose: 200.0 mg/kg/injection, schedule: Q04DX003 (ip), vehicle: Klucel (hydroxypropylcellulose) (HPC)
[8] = dose: 400.0 mg/kg/injection, schedule: Q01DX009 (ip), vehicle: Klucel (hydroxypropylcellulose) (HPC)
[9] = dose: 400.0 mg/kg/injection, schedule: Q04DX003 (ip), vehicle: Klucel (hydroxypropylcellulose) (HPC)
[10] = dose: 100.0 mg/kg/injection, schedule: Q01DX001 (ip), vehicle: saline
[11] = dose: 200.0 mg/kg/injection, schedule: Q01DX001 (ip), vehicle: saline
[12] = dose: 400.0 mg/kg/injection, schedule: Q01DX001 (ip), vehicle: saline
[13] = dose: 25.0 mg/kg/injection, schedule: Q01DX009 (ip), vehicle: saline
[14] = dose: 50.0 mg/kg/injection, schedule: Q01DX009 (ip), vehicle: saline
[15] = dose: 100.0 mg/kg/injection, schedule: Q01DX009 (ip), vehicle: saline with Tween-80
[16] = dose: 200.0 mg/kg/injection, schedule: Q01DX009 (ip), vehicle: saline with Tween-80
[17] = dose: 400.0 mg/kg/injection, schedule: Q01DX009 (ip), vehicle: saline with Tween-80
[18] = dose: 50.0 mg/kg/injection, schedule: Q01DX009 (ip), vehicle: Klucel (hydroxypropylcellulose) (HPC)
[19] = dose: 100.0 mg/kg/injection, schedule: Q01DX001 (ip), vehicle: Klucel (hydroxypropylcellulose) (HPC)

Measured: T/C

CC(Cc1ccccc1)NCCCCl (centres undefined)
inactive: [1] 89 % of control | [2] 95 % of control | [3] 93 % of control

COc1ccc(OCC2CO2)cc1 (centres undefined)
inactive: [4] 103 % of control | [5] 100 % of control | [6] 103 % of control | [7] 96 % of control | [8] 102 % of control | [9] 102 % of control

CCN(CC)CCSSCCN(CC)CC.[Cl][Mn][Cl]
inactive: [10] 103 % of control

NNCCC(=O)O
inactive: [10] 107 % of control | [11] 102 % of control | [12] 115 % of control

NC1(c2ccccc2)CCCCC1
inactive: dose: 3.12 mg/kg/injection, schedule: Q01DX009 (ip), vehicle: saline 110 % of control | dose: 6.25 mg/kg/injection, schedule: Q01DX009 (ip), vehicle: saline 104 % of control | dose: 12.5 mg/kg/injection, schedule: Q01DX009 (ip), vehicle: saline 105 % of control | [13] 103 % of control | dose: 25.0 mg/kg/injection, schedule: Q04DX003 (ip), vehicle: saline 98 % of control | [14] 105 % of control | dose: 50.0 mg/kg/injection, schedule: Q04DX003 (ip), vehicle: saline 101 % of control

O=C(Nc1ccccc1O)/C(Cl)=C/Cl
inactive: [15] 109 % of control | dose: 100.0 mg/kg/injection, schedule: Q04DX003 (ip), vehicle: saline sonified 104 % of control | [16] 102 % of control | dose: 200.0 mg/kg/injection, schedule: Q04DX003 (ip), vehicle: saline sonified 106 % of control | [17] 88 % of control | dose: 400.0 mg/kg/injection, schedule: Q04DX003 (ip), vehicle: saline sonified 106 % of control

CCOc1ccc(NC(=S)NCCc2ccccc2)cc1
inactive: [4] 102 % of control | [6] 102 % of control | [8] 105 % of control

O=C1c2ccccc2C(=O)c2c(NC(=O)C(Cl)CCl)cccc21 (centres undefined)
inactive: dose: 75.0 mg/kg/injection, schedule: Q01DX001 (ip), vehicle: saline 94 % of control | dose: 150.0 mg/kg/injection, schedule: Q01DX001 (ip), vehicle: saline 90 % of control and 92 % of control | dose: 300.0 mg/kg/injection, schedule: Q01DX001 (ip), vehicle: saline 97 % of control

CC(C)(C)N1CCC1C(=O)O (centres undefined)
inactive: [10] 92 % of control | [11] 97 % of control | [12] 97 % of control

O=C(O)c1ccc(S(=O)(=O)Cl)cc1
inactive: dose: 12.5 mg/kg/injection, schedule: Q04DX002 (ip), vehicle: Klucel (hydroxypropylcellulose) (HPC) 97 % of control | dose: 25.0 mg/kg/injection, schedule: Q04DX002 (ip), vehicle: Klucel (hydroxypropylcellulose) (HPC) 90 % of control | dose: 50.0 mg/kg/injection, schedule: Q04DX002 (ip), vehicle: Klucel (hydroxypropylcellulose) (HPC) 107 % of control

COc1ccc(C(C#N)CC(=O)c2ccc(OC)c(OCc3ccccc3)c2)cc1OC (centres undefined)
inactive: [13] 96 % of control | [14] 102 % of control | dose: 100.0 mg/kg/injection, schedule: Q01DX009 (ip), vehicle: saline 101 % of control | dose: 200.0 mg/kg/injection, schedule: Q01DX009 (ip), vehicle: saline 101 % of control

O=C1C=CC(=O)N1c1ccc([N+](=O)[O-])cc1
inactive: dose: 0.78 mg/kg/injection, schedule: Q04DX003 (ip), vehicle: Klucel (hydroxypropylcellulose) (HPC) 107 % of control | dose: 1.56 mg/kg/injection, schedule: Q01DX009 (ip), vehicle: Klucel (hydroxypropylcellulose) (HPC) 97 % of control | dose: 1.56 mg/kg/injection, schedule: Q04DX003 (ip), vehicle: Klucel (hydroxypropylcellulose) (HPC) 93 % of control | dose: 3.12 mg/kg/injection, schedule: Q01DX009 (ip), vehicle: Klucel (hydroxypropylcellulose) (HPC) 92 % of control | dose: 3.12 mg/kg/injection, schedule: Q04DX003 (ip), vehicle: Klucel (hydroxypropylcellulose) (HPC) 91 % of control | dose: 6.25 mg/kg/injection, schedule: Q01DX009 (ip), vehicle: Klucel (hydroxypropylcellulose) (HPC) 92 % of control | dose: 6.25 mg/kg/injection, schedule: Q04DX003 (ip), vehicle: Klucel (hydroxypropylcellulose) (HPC) 92 % of control | dose: 9.2 mg/kg/injection, schedule: Q01DX009 (ip), vehicle: Klucel (hydroxypropylcellulose) (HPC) 92 % of control | dose: 14.0 mg/kg/injection, schedule: Q01DX009 (ip), vehicle: Klucel (hydroxypropylcellulose) (HPC) 90 % of control | dose: 21.0 mg/kg/injection, schedule: Q01DX009 (ip), vehicle: Klucel (hydroxypropylcellulose) (HPC) 95 % of control

O=C(c1ccccc1)C1(c2ccccc2)CCP(c2ccccc2)(c2ccccc2)(c2ccccc2)O1 (centres undefined)
inactive: [1] 93 % of control | [2] 95 % of control | [3] 96 % of control

NNC(=O)C1CCN1C(c1ccccc1)c1ccccc1 (centres undefined)
inactive: dose: 25.0 mg/kg/injection, schedule: Q01DX001 (ip), vehicle: saline with Tween-80 101 % of control | dose: 50.0 mg/kg/injection, schedule: Q01DX001 (ip), vehicle: saline with Tween-80 101 % of control | dose: 100.0 mg/kg/injection, schedule: Q01DX001 (ip), vehicle: saline with Tween-80 97 % of control

Oc1ccc(-c2ccccc2)cc1O
inactive: [10] 105 % of control | [11] 109 % of control | [12] 109 % of control

IC[P+](c1ccccc1)(c1ccccc1)c1ccccc1
inactive: dose: 75.0 mg/kg/injection, schedule: Q01DX001 (ip), vehicle: carboxymethylcellulose (CMC) 106 % of control

OC(CCN1CCCCC1)(c1cccs1)C(O)(CCN1CCCCC1)c1cccs1 (centres undefined)
inactive: [10] 97 % of control | [11] 90 % of control

O=[N+]([O-])c1ccccc1NC1OC(CO)C(O)C1O (centres undefined)
inactive: dose: 100.0 mg/kg/injection, schedule: Q04DX002 (ip), vehicle: saline with Tween-80 102 % of control | dose: 200.0 mg/kg/injection, schedule: Q04DX002 (ip), vehicle: saline with Tween-80 98 % of control | dose: 400.0 mg/kg/injection, schedule: Q04DX002 (ip), vehicle: saline with Tween-80 102 % of control

COc1cc(C)c(Cl)c(C)c1C(C)=O
inactive: [4] 101 % of control | [5] 95 % of control | [6] 100 % of control | [7] 101 % of control | [8] 101 % of control | [9] 97 % of control

COC(=O)c1c(Cl)c(Cl)c(Cl)c(Cl)c1C(=O)OC
inactive: [4] 96 % of control | [15] 96 % of control | [5] 95 % of control | dose: 100.0 mg/kg/injection, schedule: Q04DX003 (ip), vehicle: saline with Tween-80 100 % of control | [6] 102 % of control | [16] 91 % of control | [7] 96 % of control | dose: 200.0 mg/kg/injection, schedule: Q04DX003 (ip), vehicle: saline with Tween-80 100 % of control | [8] 107 % of control | [9] 95 % of control

CCCCCCCCCCCCCCCCS(=O)(=O)c1ccc(NN)cc1
inactive: [4] 89 % of control | [5] 97 % of control | [6] 91 % of control | [7] 98 % of control | [8] 90 % of control | [9] 105 % of control

COc1ccc(S(=O)(=O)NC(=O)NCC=C(C)C)cc1
inactive: [18] 98 % of control | [4] 98 % of control | [5] 93 % of control | [6] 96 % of control | [7] 103 % of control | [9] 94 % of control

CSc1ccccc1C1CCCCCC1OS(C)(=O)=O (centres undefined)
inactive: dose: 12.5 mg/kg/injection, schedule: Q04DX003 (ip), vehicle: Klucel (hydroxypropylcellulose) (HPC) 109 % of control | dose: 25.0 mg/kg/injection, schedule: Q01DX009 (ip), vehicle: Klucel (hydroxypropylcellulose) (HPC) 109 % of control | dose: 25.0 mg/kg/injection, schedule: Q04DX003 (ip), vehicle: Klucel (hydroxypropylcellulose) (HPC) 106 % of control | [18] 107 % of control | dose: 50.0 mg/kg/injection, schedule: Q04DX003 (ip), vehicle: Klucel (hydroxypropylcellulose) (HPC) 102 % of control | [19] 105 % of control | [4] 102 % of control | [5] 107 % of control

CCOc1ccc(-n2c(O)c(N=Nc3ccc(Cl)cc3)c(=O)n(-c3ccccc3)c2=S)cc1
inactive: [19] 104 % of control | dose: 200.0 mg/kg/injection, schedule: Q01DX001 (ip), vehicle: Klucel (hydroxypropylcellulose) (HPC) 105 % of control | dose: 400.0 mg/kg/injection, schedule: Q01DX001 (ip), vehicle: Klucel (hydroxypropylcellulose) (HPC) 94 % of control

Cc1ccc([N+](=O)[O-])cc1NC(=O)NCc1ccc(Cl)cc1
inactive: [15] 87 % of control | [16] 106 % of control | [17] 95 % of control
